Results published in patent US12459953B2, “TREM2 modulators” (Muna Therapeutics ApS, priority 2024, dated 2025).

Molecular target: T1, Human TREM2 (Homo sapiens, UniProt Q9NZC2)
T1 construct: expressed in transfected cells
Assay: Human TREM2 activity by cellular phosphorylation of Syk (AlphaLISA SureFire Ultra p-SYK) in HEK293/DAP12+TREM2 stable cell line
Format: cell-based
Details: HEK293/DAP12+TREM2 cells; for Emax: maximal response relative to the maximal response of the reference agonist (8-(4-chloro-2-fluorophenyl)-2,3-dimethyl-6-[(2S)-2-(1-methyl-1H-pyrazol-4-yl)morpholin-4-yl]-3H,4H-[1,3]diazino[5,4-d]pyrimidin-4-one); for EC50: phospho-Syk AlphaScreen signal, 30 min incubation, concentration giving 50% of maximal response
From the text: Human TREM2, in vitro Measurement of Triggering Receptor Expressed on Myeloid Cells 2 activity using cellular phosphorylation of Spleen Tyrosine Kinase (“Syk”) Assay
HEK-293 cells were co-transfected with separate plasmids encoding TREM2 and DAP12 to generate a stable cell line. After antibiotic selection, functional clone pool analysis and two successive limiting dilutions, the final clone
“HEK293/DAP12+TREM2” underwent a qPCR analysis and a pharmacological validation.
TREM2 signaling through DAP12 was monitored in the HEK293/DAP12+TREM2 stable cell line by measuring the phosphorylation levels of the Syk kinase using the commercially available AlphaLISA SureFire Ultra p-SYK (Tyr525/526) Assay Kit (PerkinElmer #ALSU-PSYK), based on the Perkin Elmer AlphaScreen/AlphaLISA technology.
Compounds are transferred to the test plate and tested in full dose response, 8 concentrations in quadruplicate data points. Compound serial dilutions were performed at Cybi-Felix instrument in 100% DMSO and the dose response curves were assembled in automated fashion in 384MPT at Hamilton STARIet instrument. All the stock solutions were prepared at 20 mM in 100% DMSO. For compounds testing, the starting concentration was 100 μM, dilution steps 1:6. A different concentration's range was adapted for compound's activity based on the preliminary results. Finally, a 384MPT reformatted for all compounds at 8 concentrations, quadruplicates, was used as “mother to child” process with a CyBi®-Well dispenser in which 1 μL of each compound was moved into a destination plate pre-filled with 65.6 μL of EMEM cell culture medium (BIOWHITTAKER_cat.BE12-125F), thus obtaining 3× concentrated compounds working solution. In columns 1-2 and 23-24 the control wells were added. In particular, dose response curves of a reference control agonist were included in column 1 and 24 as reference control agonist (Reference control agonists used include Human TREM2 polyclonal Antibody AF1828: R&D Systems; Human TREM2 monoclonal Antibody MAB1828: R&D Systems). The dose response curves were tested starting at 30 μM, dilution step 1:6. Both “source” compound plate and “destination” compound plate were barcoded and a relationship between the two plates was thus generated.
HEK293/DAP12+TREM2 cells were cultured in EMEM medium supplemented with IX Penicillin/Streptomycin (BIOWHITTAKER_cat.DE17-602E), ULTRAGLUTAMINE I 200 mM, 10% Fetal Bovine Serum plus antibiotics referred to as “HEK293 Culture Medium”. The day before the experiment, cells were detached by gentle wash with DPBS, followed by 5 min incubation at 37° C. with Trypsin solution. Cells were then diluted in HEK293 Culture Medium without antibiotics, counted and seeded into 384-well poly-D-Lysine coated microplates black/clear bottom (GREINER 781946) at a density of 10,000 cells/well in 25 μL/well by the use of a MATRIX WellMate dispenser. Plates were placed into a humidified cell culture incubator at 37° C. with 5% CO2 until the experimental day. 20-24 hours after seeding mature medium was removed and replaced with 10 μL/well of EMEM cell medium supplemented with 0.1% Pluronic F-68 non-ionic surfactant (Thermofisher, 24040032), referred to as “Assay Buffer”, using the CyBi®-Well instrument. Then 5 μL/well of Assay Buffer containing 3× concentrated test compounds or the reference control agonist (in 0.5% final DMSO concentration) were added to the cells with the CyBi®-Well instrument. Cell plates were incubated for 30 min into a humidified cell culture incubator at 37° C. with 5% CO2,then the medium was removed by manually discard. 20 μL/well of lysis buffer were dispensed using the CyBi®-Well instrument and plates were incubated for 10 min at room temperature on a plate shaker (350 rpm). Then, 10 μL/well of lysate were transferred to the Alpha plates. The CyBi®-Well instrument was used to dispense 5 μL/well of AlphaLISA Acceptor Bead Solution in IX Immunoassay buffer (Perkin Elmer ALOOOF). […]

T1 sequence (Q9NZC2 19-230): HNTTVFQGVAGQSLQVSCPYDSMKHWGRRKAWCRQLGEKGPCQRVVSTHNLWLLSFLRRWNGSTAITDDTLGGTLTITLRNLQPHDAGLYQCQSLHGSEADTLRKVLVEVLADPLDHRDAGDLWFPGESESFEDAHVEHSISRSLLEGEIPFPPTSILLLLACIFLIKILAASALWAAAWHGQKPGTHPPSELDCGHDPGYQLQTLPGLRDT
T1 sequence (O43914 22-113 partner): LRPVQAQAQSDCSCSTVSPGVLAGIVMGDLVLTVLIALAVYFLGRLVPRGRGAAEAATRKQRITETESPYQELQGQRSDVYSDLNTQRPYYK

Emax [%] | EC50 [nM] | SMILES
75 to 110 | 10 to 100 | COc1cc([C@@H]2CN(c3nc(-c4ccc(C#N)cc4F)c4nc(C(F)(F)F)n(C)c(=O)c4n3)CCO2)ccn1 (single isomer, unassigned) [Example 8A]
75 to 110 | < 1 | COc1cc([C@H]2CN(c3nc(-c4ccc(C#N)cc4F)c4nc(C(F)(F)F)n(C)c(=O)c4n3)CCO2)ccn1 (single isomer, unassigned) [Example 8B]
75 to 110 | < 1 | COc1cc([C@@H]2CN(c3nc(-c4ccc(C#N)cc4F)c4nc(C(F)(F)F)n(C)c(=O)c4n3)C[C@H](C)O2)ccn1 (single isomer, unassigned) [Example 9A]
75 to 110 | < 1 | COc1cc([C@H]2CN(c3nc(-c4ccc(C#N)cc4F)c4nc(C(F)(F)F)n(C)c(=O)c4n3)C[C@@H](C)O2)ccn1 (single isomer, unassigned) [Example 9B]
75 to 110 | < 1 | C[C@@H]1CN(c2nc(-c3ccc(C#N)cc3)c3nc(C(F)(F)F)n(C)c(=O)c3n2)C[C@H](c2cnn(C)c2)O1 (single isomer, unassigned) [Example 10A]
75 to 110 | 1 to 10 | C[C@H]1CN(c2nc(-c3ccc(C#N)cc3)c3nc(C(F)(F)F)n(C)c(=O)c3n2)C[C@@H](c2cnn(C)c2)O1 (single isomer, unassigned) [Example 10B]
75 to 110 | < 1 | C[C@@H]1CN(c2nc(-c3ccc(C#N)cc3)c3nc(C(F)(F)F)n(C)c(=O)c3n2)C[C@H](c2cnn(C3CC3)c2)O1 (single isomer, unassigned) [Example 11A]
75 to 110 | 1 to 10 | C[C@H]1CN(c2nc(-c3ccc(C#N)cc3)c3nc(C(F)(F)F)n(C)c(=O)c3n2)C[C@@H](c2cnn(C3CC3)c2)O1 (single isomer, unassigned) [Example 11B]
75 to 110 | < 1 | COc1cc([C@H]2CN(c3nc(-c4ccc(F)cc4F)c4nc(C(F)(F)F)n(C)c(=O)c4n3)CCO2)ccn1 (single isomer, unassigned) [Example 12A]
75 to 110 | 10 to 100 | COc1cc([C@@H]2CN(c3nc(-c4ccc(F)cc4F)c4nc(C(F)(F)F)n(C)c(=O)c4n3)CCO2)ccn1 (single isomer, unassigned) [Example 12B]
75 to 110 | < 1 | C[C@@H]1CN(c2cc3c(=O)n(C)c(C(F)(F)F)nc3c(-c3ccc(C#N)cc3F)n2)C[C@H](c2cnn(C3CC3)c2)O1 (single isomer, unassigned) [Example 13A]
75 to 110 | 1 to 10 | C[C@H]1CN(c2cc3c(=O)n(C)c(C(F)(F)F)nc3c(-c3ccc(C#N)cc3F)n2)C[C@@H](c2cnn(C3CC3)c2)O1 (single isomer, unassigned) [Example 13B]
75 to 110 | 1 to 10 | Cn1cc([C@H]2CN(c3cc4c(=O)n(C)c(C(F)(F)F)nc4c(-c4ccc(C#N)cc4F)n3)CC(F)(F)O2)cn1 (single isomer, unassigned) [Example 14A]
75 to 110 | 10 to 100 | Cn1cc([C@@H]2CN(c3cc4c(=O)n(C)c(C(F)(F)F)nc4c(-c4ccc(C#N)cc4F)n3)CC(F)(F)O2)cn1 (single isomer, unassigned) [Example 14B]

Further lines, the compound ahead of its results:

SMILES | Emax [%] | EC50 [nM]
C[C@@H]1CN(c2nc(-c3ccc(F)cc3F)c3ncn(C)c(=O)c3n2)C[C@H](c2cnn(C3CC3)c2)O1 | 75 to 110 | 10 to 100
Cc1nc2c(-c3ccc(F)cc3F)nc(N3C[C@@H](C)O[C@@H](c4cnn(C5CC5)c4)C3)nc2c(=O)n1C | 75 to 110 | 1 to 10
COc1ccc(-c2nc(N3C[C@@H](C)O[C@@H](c4cnn(C5CC5)c4)C3)nc3c(=O)n(C)c(C(F)(F)F)nc23)c(F)c1 (single isomer, unassigned) [Example 4] | 75 to 110 | < 1
C[C@@H]1CN(c2nc(-c3ccc(C#N)cc3F)c3nc(C(F)(F)F)n(C)c(=O)c3n2)C[C@H](c2cnn(C3CC3)c2)O1 (single isomer, unassigned) [Example 5A] | > 110 | < 1
C[C@H]1CN(c2nc(-c3ccc(C#N)cc3F)c3nc(C(F)(F)F)n(C)c(=O)c3n2)C[C@@H](c2cnn(C3CC3)c2)O1 (single isomer, unassigned) [Example 5B] | > 110 | 1 to 10
C[C@@H]1CN(c2nc(-c3ccc(C#N)cc3F)c3nc(C(F)(F)F)n(C)c(=O)c3n2)C[C@H](c2cnn(C)c2)O1 (single isomer, unassigned) [Example 6A] | 75 to 110 | 1 to 10
C[C@H]1CN(c2nc(-c3ccc(C#N)cc3F)c3nc(C(F)(F)F)n(C)c(=O)c3n2)C[C@@H](c2cnn(C)c2)O1 (single isomer, unassigned) [Example 6B] | 75 to 110 | 1 to 10
Cn1cc([C@H]2CN(c3nc(-c4ccc(C#N)cc4F)c4nc(C(F)(F)F)n(C)c(=O)c4n3)CC(F)(F)O2)cn1 (single isomer, unassigned) [Example 7A] | > 110 | < 1
Cn1cc([C@@H]2CN(c3nc(-c4ccc(C#N)cc4F)c4nc(C(F)(F)F)n(C)c(=O)c4n3)CC(F)(F)O2)cn1 (single isomer, unassigned) [Example 7B] | 75 to 110 | 1 to 10
Cn1cc([C@H]2CN(c3nc(-c4ccc(C#N)cc4F)c4nc(C(F)(F)F)n(C)c(=O)c4n3)CCO2)cn1 [Example 1, (S)-3-fluoro-4-(7-methyl-2-(2-(1-methyl-1H-pyrazol-4-yl)morpholino)-8-oxo-6-(trifluoromethyl)-7,8-dihydropyrimido[5,4-d]pyrimidin-4-yl)benzonitrile] | 75 to 110 | < 1
COc1ccc(-c2nc(N3CCO[C@@H](c4cnn(C)c4)C3)nc3c(=O)n(C)c(C(F)(F)F)nc23)c(F)c1 [Example 2, (S)-8-(2-fluoro-4-methoxyphenyl)-3-methyl-6-(2-(1-methyl-1H-pyrazol-4-yl)morpholino)-2-(trifluoromethyl)pyrimido[5,4-d]pyrimidin-4(3H)-one] | 75 to 110 | 1 to 10
Cn1cc([C@H]2CN(c3nc(-c4ccc(C#N)cc4)c4nc(C(F)(F)F)n(C)c(=O)c4n3)CCO2)cn1 [Example 3, (S)-4-(7-methyl-2-(2-(1-methyl-1H-pyrazol-4-yl)morpholino)-8-oxo-6-(trifluoromethyl)-7,8-dihydropyrimido[5,4-d]pyrimidin-4-yl)benzonitrile] | < 75 | 1 to 10
Cn1cc([C@H]2CN(c3cc4c(=O)n(C)c(C(F)(F)F)nc4c(-c4ccc(C#N)cc4F)n3)CCO2)cn1 [Example 15, (S)-3-fluoro-4-(3-methyl-6-(2-(1-methyl-1H-pyrazol-4-yl)morpholino)-4-oxo-2-(trifluoromethyl)-3,4-dihydropyrido[3,4-d]pyrimidin-8-yl)benzonitrile] | 75 to 110 | 1 to 10
